Test results as given in ChEMBL document CHEMBL3885861, “Open TG-GATES”.
Where a name gives a salt, the structure may show the parent alone.

Species on record: Rattus norvegicus
Experiment: Open TG-GATES - Regimen: Single
Format: toxicity, organism-based, Sprague-Dawley
Design: regimen Single, gender Male, age 6 weeks
Settings: in vivo, ip, 80 mg/kg, route intraperitoneal injection, dose level Low; for APTT / Bas / Eos / Fbg / Hb / Ht / Lym / MCH / MCHC / MCV / Mono / Neu / PT / Plat / RBC / Ret / WBC: tissue Blood; for KIDNEY_L / KIDNEY_R / KIDNEY_TOTAL: tissue Kidney; for LIVER: tissue Liver; for A/G / ALP / ALT / AST / BUN / CRE / Ca / Cl / DBIL / GLC / IP / K / LDH / Na / PL / RALB / TBIL / TC / TG / TP / gamma-GTP: tissue Plasma

## CCOC(=O)/C=C\C(=O)OCC [DIETHYL MALEATE]
3 h
  TERMINAL_BW: 197.8 g
  APTT: 16.6 s
  Bas: 0%
  Eos: 0.4%
  Fbg: 212.4 mg/dL
  Hb: 13.4 g/dL
  Ht: 40%
  Lym: 73.4%
  MCH: 22 pg
  MCHC: 33.5%
  MCV: 65.8 fL
  Mono: 6.6%
  Neu: 20%
  PT: 12.3 s
  Plat: 114.6 x10_4/uL
  RBC: 608.6 x10_4/ul
  Ret: 9.4%
  WBC: 97 x10_2/uL
  KIDNEY_L: 0.8 g
  KIDNEY_R: 0.9 g
  KIDNEY_TOTAL: 1.7 g
  LIVER: 9 g
  A/G: 1.9
  ALP: 802.4 IU/L
  ALT: 41.2 IU/L
  AST: 75.2 IU/L
  BUN: 14.8 mg/dL
  CRE: 0.5 mg/dL
  Ca: 11 mg/dL
  Cl: 106.6 meq/L
  DBIL: 0.032 mg/dL
  GLC: 194.2 mg/dL
  IP: 10.2 mg/dL
  K: 5.1 meq/L
  LDH: 80.8 IU/L
  Na: 140.4 meq/L
  PL: 150.4 mg/dL
  RALB: 3.6 g/dL
  TBIL: 0.4 mg/dL
  TC: 88 mg/dL
  TG: 33 mg/dL
  TP: 5.5 g/dL
  gamma-GTP: 1 IU/L
6 h
  TERMINAL_BW: 197.1 g
  APTT: 16.8 s
  Bas: 0%
  Eos: 0.6%
  Fbg: 207.2 mg/dL
  Hb: 13.1 g/dL
  Ht: 39.2%
  Lym: 76.2%
  MCH: 21.9 pg
  MCHC: 33.4%
  MCV: 65.4 fL
  Mono: 5.2%
  Neu: 17.8%
  PT: 12.2 s
  Plat: 116.6 x10_4/uL
  RBC: 599.8 x10_4/ul
  Ret: 9.5%
  WBC: 108.8 x10_2/uL
  KIDNEY_L: 0.9 g
  KIDNEY_R: 0.9 g
  KIDNEY_TOTAL: 1.7 g
  LIVER: 8.4 g
  A/G: 1.9
  ALP: 753.2 IU/L
  ALT: 36.4 IU/L
  AST: 76.2 IU/L
  BUN: 13 mg/dL
  CRE: 0.5 mg/dL
  Ca: 10.7 mg/dL
  Cl: 106.8 meq/L
  DBIL: 0.002 mg/dL
  GLC: 194 mg/dL
  IP: 10 mg/dL
  K: 4.8 meq/L
  LDH: 91 IU/L
  Na: 139.2 meq/L
  PL: 131.4 mg/dL
  RALB: 3.4 g/dL
  TBIL: 0.5 mg/dL
  TC: 73.4 mg/dL
  TG: 46 mg/dL
  TP: 5.3 g/dL
  gamma-GTP: 1 IU/L
9 h
  TERMINAL_BW: 197.4 g
  APTT: 16.7 s
  Bas: 0%
  Eos: 0.8%
  Fbg: 223.2 mg/dL
  Hb: 12.9 g/dL
  Ht: 38.5%
  Lym: 71.4%
  MCH: 21.7 pg
  MCHC: 33.6%
  MCV: 64.7 fL
  Mono: 3.8%
  Neu: 24%
  PT: 11.7 s
  Plat: 117.4 x10_4/uL
  RBC: 596.2 x10_4/ul
  Ret: 9.2%
  WBC: 102 x10_2/uL
  KIDNEY_L: 0.8 g
  KIDNEY_R: 0.9 g
  KIDNEY_TOTAL: 1.7 g
  LIVER: 8 g
  A/G: 2.2
  ALP: 735 IU/L
  ALT: 35.2 IU/L
  AST: 73.4 IU/L
  BUN: 12.6 mg/dL
  CRE: 0.4 mg/dL
  Ca: 10.5 mg/dL
  Cl: 107.2 meq/L
  DBIL: 0.026 mg/dL
  GLC: 204.6 mg/dL
  IP: 9.6 mg/dL
  K: 4.7 meq/L
  LDH: 89.4 IU/L
  Na: 139.6 meq/L
  PL: 137.8 mg/dL
  RALB: 3.6 g/dL
  TBIL: 0.3 mg/dL
  TC: 79.4 mg/dL
  TG: 41 mg/dL
  TP: 5.3 g/dL
  gamma-GTP: 1.4 IU/L
24 h
  TERMINAL_BW: 209.5 g
  APTT: 15.5 s
  Bas: 0%
  Eos: 0.8%
  Fbg: 225.8 mg/dL
  Hb: 12.9 g/dL
  Ht: 38.7%
  Lym: 79.4%
  MCH: 21.6 pg
  MCHC: 33.4%
  MCV: 64.7 fL
  Mono: 4.6%
  Neu: 15.2%
  PT: 11.8 s
  Plat: 123.2 x10_4/uL
  RBC: 598.4 x10_4/ul
  Ret: 9.8%
  WBC: 94.6 x10_2/uL
  KIDNEY_L: 0.9 g
  KIDNEY_R: 0.9 g
  KIDNEY_TOTAL: 1.8 g
  LIVER: 10 g
  A/G: 2.1
  ALP: 887.2 IU/L
  ALT: 36 IU/L
  AST: 63.6 IU/L
  BUN: 17.4 mg/dL
  CRE: 0.5 mg/dL
  Ca: 11.1 mg/dL
  Cl: 106 meq/L
  DBIL: 0.03 mg/dL
  GLC: 195.8 mg/dL
  IP: 8 mg/dL
  K: 5 meq/L
  LDH: 94.4 IU/L
  Na: 139.6 meq/L
  PL: 148.8 mg/dL
  RALB: 3.7 g/dL
  TBIL: 0.3 mg/dL
  TC: 82.6 mg/dL
  TG: 93 mg/dL
  TP: 5.5 g/dL
  gamma-GTP: 1.6 IU/L
